# Experimental data reported in patent US5489576A, “Therapeutic agent for hemorrhoidal diseases” (Senju Pharmaceutical Co., Ltd., priority 1993, dated 1996).
# Counter-ions that a name gives are not always drawn.
# How the values were obtained:
# [1] = LD50 in rats (acute toxicity); details: rat, in vivo
# Text: Accordingly, it can be advantageously used for the treatment of hemorrhoidal diseases.
# rectal mucosa = test: Rectal mucosa irritating action; type: in vivo, Male Wistar rats; details: intrarectal, 5 h; for Irritation potency, Index value: mean ± standard error (n = 6); for Irritation potency, Central value: score 0-4 of Table 1
# Procedure: Rectal Mucosa Irritating Action of Compound (I)
# The rectal mucosa irritating action of Compound (I) was examined as in the following.
# 1. Animals used: Male Wistar rats weighing 135-200 g
# 2. Test substance: EPC-K added to an oil-in-water type cream
# The rats were fasted for 48 hours and the test substance was intrarectally administered. Five hours later, the rats were exsanguinated to death. The rectum was removed and the mucosa was visually observed. The condition of the mucosa was expressed in numerical units according to the evaluation standard shown in Table 1, and a central value and an average value were calculated, based on which the irritation by the test substance was classified according to the evaluation standard for irritation shown in Table 2.
# rectal tissues = test: Wound healing accelerating effect on rectal tissues (hydroxyproline content); type: in vivo, Male Wistar rats; details: 1% EPC-K, average (n=5)
# Procedure: Wound Healing Accelerating Effect of Compound (I) on Rectal Tissues
# The wound healing accelerating effect of Compound (I) on rectal tissues was examined using the amount of hydroxyproline (Hyp) in tissue as an index.
# 1. Animals used: Male Wistar rats weighing 150-250 g
# 2. Test substance: EPC-K added to an oil-in-water cream to 1 w/w %
# The rats were fasted for 24 hours and a narrow saw was inserted in the rectum. A wound was made by two reciprocations of the saw in the rectum. The test substance was injected in the rectum once a day by 100 μl beginning immediately after forming of the wound. The rats were exsanguinated to death at 4 hours, 1, 3, 6 or 9 days thereafter and the rectum was removed. The removed rectum was delipidized, shredded and dried. After acid hydrolysis, pH was adjusted and hydroxyproline content was measured by the chloramine T oxidation method.
# [2] = tested on: recto-anal edema induced by a croton oil mixture; test: Suppressive effect on recto-anal edema induced by croton oil mixture; type: in vivo, Male Wistar rats; details: 4% EPC-K in petrolatum, 24 h, * p < 0.05 vs control
# Procedure: Effects of Compound (I) on Models with Hemorrhoidal Disease Induced by Croton Oil Mixture
# The suppressive effect of Compound (I) on recto-anal edema induced by a croton oil mixture was examined.
# 1. Animals used: Male Wistar rats weighing 140-250 g
# 2. Test substance: EPC-K added to petrolatum base material to 4 w/w %
# Composition: distilled water:pyridine:diethyl ether:6% croton oil in diethyl ether solution=1:4:5:10
# Preparation: Water and a small amount of diethyl ether were added to pyridine and mixed. Then, a 6% croton oil diethyl ether solution was added and the remaining diethyl ether was added thereto. The mixture was vigorously shaken.
# A stype of a swab was impregnated with the croton oil mixture (160 μl) and the entire stype was inserted into the rectum for 10 seconds.
# 5. Determination of edema
# The test substance was administered intrarectally immediately after the induction of inflammation, and the anus was sealed for 4 hours with a clip so as to prevent leaking out of the substance.
# At 24 hours after the induction of inflammation, the rats were exsanguinated to death and the weight of the recto-anal part, cut out in 15 mm length from 5 mm from the circular hairline on annal epithelium, was measured. The recto-anal coefficient (RAC=Wra·Wb^-1 ·10^3) was calculated on the basis of the weight of the recto-anal part (Wra) and body weight (Wb) and used as an index of inflammation.
# [3] = 0.2% EPC-K in oil-in-water cream
smiles,measurement,setting,value
"Cc1c(C)c2c(c(C)c1OP(=O)(O)OC1=C(O)[C@@H]([C@@H](O)CO)OC1=O)CCC(C)(CCCC(C)CCCC(C)CCCC(C)C)O2 (mixture of isomers) [EPC-K, L-ascorbic acid DL-α-tocopheryl phosphate diester potassium salt]",LD50,[1]; intravenous injection to rats,≥ 100 mg/kg
same,LD50,[1]; oral administration to rats,≥ 5000 mg/kg
same,"Irritation potency, Index value",rectal mucosa; [3],0.67 ± 0.42
same,"Irritation potency, Central value",rectal mucosa; [3],0
same,"Irritation potency, Index value",rectal mucosa; 1% EPC-K in oil-in-water cream,0.50 ± 0.34
same,"Irritation potency, Central value",rectal mucosa; 1% EPC-K in oil-in-water cream,0
same,"Irritation potency, Index value",rectal mucosa; 5% EPC-K in oil-in-water cream,0.83 ± 0.54
same,"Irritation potency, Central value",rectal mucosa; 5% EPC-K in oil-in-water cream,0
same,Hydroxyproline content in rectal tissues,"rectal tissues; 4 hr later, control 19.67, normal rectum 22.26",19.38 µg/mg
same,Hydroxyproline content in rectal tissues,"rectal tissues; 1 day later, control 19.69, normal rectum 22.26",21.70 µg/mg
same,Hydroxyproline content in rectal tissues,"rectal tissues; 3 days later, control 23.46, normal rectum 22.26",24.75 µg/mg
same,Hydroxyproline content in rectal tissues,"rectal tissues; 6 days later, control 25.63, normal rectum 22.26",25.22 µg/mg
same,Hydroxyproline content in rectal tissues,"rectal tissues; 9 days later, control 27.38, normal rectum 22.26",26.53 µg/mg
same,Edema suppression,[2],19.5%
same,Recto-anal coefficient (RAC),"[2]; mean ± standard error (n = 10), control 2.36, untreated 0.67",2.03 ± 0.07
